These results are taken from ChEMBL document CHEMBL5678818, “Discovery of potent SOS1 inhibitors that block RAS activation via disruption of the RAS-SOS1 interaction” (Proc Natl Acad Sci U S A, 2019).

Structures are written as SMILES.

The test system of assay [1] is Tyrosine-protein kinase ABL1 (Homo sapiens), P00519 [T315I]. The assay can be described thus: Inhibition of nonphosphorylated ABL1 T315I mutant (unknown origin) assessed as residual activity at 1000 nM by KINOMEscan analysis relative to control.
Assay [2] has as its system Tyrosine-protein kinase ABL1 (Homo sapiens), P00519 [Y253F]. The assay can be described thus: Inhibition of phosphorylated ABL1 Y253F mutant (unknown origin) assessed as residual activity at 1000 nM by KINOMEscan analysis relative to control.
Assay [3] concerns Epidermal growth factor receptor (Homo sapiens), P00533 [UNDEFINED MUTATION]. The assay can be described thus: Inhibition of EGFR L747-S752del/P753S mutant (unknown origin) assessed as residual activity at 1000 nM by KINOMEscan analysis relative to control.
Chain of Epidermal growth factor receptor (Homo sapiens), P00533 [UNDEFINED MUTATION] (P00533 whole entry, looked up, stated change not applied): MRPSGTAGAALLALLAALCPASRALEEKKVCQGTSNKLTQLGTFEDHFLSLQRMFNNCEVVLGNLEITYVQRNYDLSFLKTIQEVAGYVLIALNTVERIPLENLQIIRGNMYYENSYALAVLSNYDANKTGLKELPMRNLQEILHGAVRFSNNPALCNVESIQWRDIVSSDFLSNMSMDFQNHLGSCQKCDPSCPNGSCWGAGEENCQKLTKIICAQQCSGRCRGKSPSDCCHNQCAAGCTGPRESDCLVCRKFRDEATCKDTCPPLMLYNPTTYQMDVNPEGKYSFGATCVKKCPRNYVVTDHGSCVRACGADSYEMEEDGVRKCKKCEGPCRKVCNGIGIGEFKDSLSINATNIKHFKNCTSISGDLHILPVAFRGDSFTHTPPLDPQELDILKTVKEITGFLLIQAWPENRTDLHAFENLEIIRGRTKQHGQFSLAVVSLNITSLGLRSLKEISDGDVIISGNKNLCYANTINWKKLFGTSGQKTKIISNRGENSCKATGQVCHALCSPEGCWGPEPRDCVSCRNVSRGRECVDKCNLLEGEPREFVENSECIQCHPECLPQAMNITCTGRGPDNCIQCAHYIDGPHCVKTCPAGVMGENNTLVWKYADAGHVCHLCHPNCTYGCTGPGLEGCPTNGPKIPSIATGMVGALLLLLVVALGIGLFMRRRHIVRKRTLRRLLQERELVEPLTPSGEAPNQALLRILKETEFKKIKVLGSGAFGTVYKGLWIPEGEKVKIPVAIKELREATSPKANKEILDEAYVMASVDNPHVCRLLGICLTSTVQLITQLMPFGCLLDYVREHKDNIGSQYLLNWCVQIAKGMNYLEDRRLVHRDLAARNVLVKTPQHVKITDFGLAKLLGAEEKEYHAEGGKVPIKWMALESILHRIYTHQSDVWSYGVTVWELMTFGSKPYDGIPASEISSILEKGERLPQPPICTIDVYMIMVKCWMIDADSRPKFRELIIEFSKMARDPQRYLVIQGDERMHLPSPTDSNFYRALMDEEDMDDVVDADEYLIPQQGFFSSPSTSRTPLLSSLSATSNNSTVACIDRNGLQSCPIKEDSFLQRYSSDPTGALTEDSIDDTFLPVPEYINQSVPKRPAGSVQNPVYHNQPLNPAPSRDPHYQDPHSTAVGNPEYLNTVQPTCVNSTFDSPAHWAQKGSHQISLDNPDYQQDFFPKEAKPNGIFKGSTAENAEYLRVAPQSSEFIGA
The target of assay [4] is T1, Ephrin type-A receptor 8 (Homo sapiens) (UniProt P29322).
T1 sequence (whole entry): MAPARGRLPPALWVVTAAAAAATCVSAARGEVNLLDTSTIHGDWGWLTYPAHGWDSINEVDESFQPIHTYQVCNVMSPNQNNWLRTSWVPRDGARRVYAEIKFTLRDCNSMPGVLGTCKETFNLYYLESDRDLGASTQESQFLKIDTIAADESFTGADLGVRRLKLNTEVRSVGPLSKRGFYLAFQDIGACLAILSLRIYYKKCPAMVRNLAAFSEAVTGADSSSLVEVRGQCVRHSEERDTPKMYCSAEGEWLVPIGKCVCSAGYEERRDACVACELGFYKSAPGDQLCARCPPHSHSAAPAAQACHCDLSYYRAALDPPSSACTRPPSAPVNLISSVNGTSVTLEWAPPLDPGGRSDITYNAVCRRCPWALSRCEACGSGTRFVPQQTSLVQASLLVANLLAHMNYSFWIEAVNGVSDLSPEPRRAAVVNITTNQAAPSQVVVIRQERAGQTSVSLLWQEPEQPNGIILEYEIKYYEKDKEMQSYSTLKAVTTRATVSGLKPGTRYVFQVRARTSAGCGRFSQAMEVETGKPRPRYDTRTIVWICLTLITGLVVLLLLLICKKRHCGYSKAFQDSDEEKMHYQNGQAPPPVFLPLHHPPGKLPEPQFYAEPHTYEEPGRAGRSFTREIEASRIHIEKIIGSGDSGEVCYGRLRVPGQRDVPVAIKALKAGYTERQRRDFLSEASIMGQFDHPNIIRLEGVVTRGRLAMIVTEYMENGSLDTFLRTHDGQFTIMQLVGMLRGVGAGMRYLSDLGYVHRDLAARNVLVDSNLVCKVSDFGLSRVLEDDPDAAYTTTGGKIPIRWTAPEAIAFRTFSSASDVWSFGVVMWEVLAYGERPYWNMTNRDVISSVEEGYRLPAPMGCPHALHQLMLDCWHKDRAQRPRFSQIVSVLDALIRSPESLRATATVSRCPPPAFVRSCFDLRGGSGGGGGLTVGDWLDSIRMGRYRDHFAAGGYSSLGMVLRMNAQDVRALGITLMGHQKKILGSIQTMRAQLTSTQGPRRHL
The assay can be described thus: Inhibition of EPHA8 (unknown origin) assessed as residual activity at 1000 nM by KINOMEscan analysis relative to control.

Assay [5] concerns the target T2, Serine/threonine-protein kinase D2 (Homo sapiens) (UniProt Q9BZL6).
T2 sequence (whole entry): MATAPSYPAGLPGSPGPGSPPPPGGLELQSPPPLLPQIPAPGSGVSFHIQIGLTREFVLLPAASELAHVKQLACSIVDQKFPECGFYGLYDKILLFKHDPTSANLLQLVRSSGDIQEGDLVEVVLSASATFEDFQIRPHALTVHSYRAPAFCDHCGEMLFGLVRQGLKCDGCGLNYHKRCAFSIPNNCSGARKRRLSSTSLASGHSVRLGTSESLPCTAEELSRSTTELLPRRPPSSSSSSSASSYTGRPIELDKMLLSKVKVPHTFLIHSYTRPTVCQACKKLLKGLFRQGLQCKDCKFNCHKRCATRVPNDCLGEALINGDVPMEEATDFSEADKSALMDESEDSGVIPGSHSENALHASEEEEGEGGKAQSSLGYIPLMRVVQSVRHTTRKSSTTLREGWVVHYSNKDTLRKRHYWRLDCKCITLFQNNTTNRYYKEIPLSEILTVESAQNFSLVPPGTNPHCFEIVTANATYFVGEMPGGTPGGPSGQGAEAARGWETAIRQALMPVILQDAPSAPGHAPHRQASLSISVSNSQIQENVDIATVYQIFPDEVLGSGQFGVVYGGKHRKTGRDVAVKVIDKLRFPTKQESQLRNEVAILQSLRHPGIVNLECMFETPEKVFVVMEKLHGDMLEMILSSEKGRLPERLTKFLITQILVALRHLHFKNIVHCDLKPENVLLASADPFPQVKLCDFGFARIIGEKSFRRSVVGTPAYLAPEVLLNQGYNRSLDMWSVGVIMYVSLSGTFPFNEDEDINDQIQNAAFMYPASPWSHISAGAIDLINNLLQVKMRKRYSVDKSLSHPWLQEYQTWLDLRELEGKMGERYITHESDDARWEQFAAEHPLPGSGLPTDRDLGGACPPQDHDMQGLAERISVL
The assay can be described thus: Inhibition of PRKD2 (unknown origin) assessed as residual activity at 1000 nM by KINOMEscan analysis relative to control.

In assay [6] the target is Serine/threonine-protein kinase VRK2 (Homo sapiens) (UniProt Q86Y07). The assay can be described thus: Inhibition of VRK2 (unknown origin) assessed as residual activity at 1000 nM by KINOMEscan analysis relative to control.
Chain of Serine/threonine-protein kinase VRK2 (Homo sapiens) (Q86Y07 whole entry): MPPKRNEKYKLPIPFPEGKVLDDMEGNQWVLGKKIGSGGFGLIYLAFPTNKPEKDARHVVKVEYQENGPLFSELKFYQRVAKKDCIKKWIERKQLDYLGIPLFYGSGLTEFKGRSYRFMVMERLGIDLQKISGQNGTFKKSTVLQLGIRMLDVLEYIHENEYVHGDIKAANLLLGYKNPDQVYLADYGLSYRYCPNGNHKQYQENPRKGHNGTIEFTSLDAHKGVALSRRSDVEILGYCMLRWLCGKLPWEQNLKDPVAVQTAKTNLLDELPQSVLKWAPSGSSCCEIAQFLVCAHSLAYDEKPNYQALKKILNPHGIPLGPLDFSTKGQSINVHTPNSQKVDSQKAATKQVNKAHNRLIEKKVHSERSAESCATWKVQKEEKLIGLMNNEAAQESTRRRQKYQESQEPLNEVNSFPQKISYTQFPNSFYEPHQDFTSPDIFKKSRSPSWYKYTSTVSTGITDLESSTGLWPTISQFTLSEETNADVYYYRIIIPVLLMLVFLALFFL
Assay [7] deals with Serine/threonine-protein kinase MAK (Homo sapiens) (UniProt P20794). The assay can be described thus: Inhibition of MAK (unknown origin) assessed as residual activity at 1000 nM by KINOMEscan analysis relative to control.
Chain of Serine/threonine-protein kinase MAK (Homo sapiens) (P20794 whole entry, looked up): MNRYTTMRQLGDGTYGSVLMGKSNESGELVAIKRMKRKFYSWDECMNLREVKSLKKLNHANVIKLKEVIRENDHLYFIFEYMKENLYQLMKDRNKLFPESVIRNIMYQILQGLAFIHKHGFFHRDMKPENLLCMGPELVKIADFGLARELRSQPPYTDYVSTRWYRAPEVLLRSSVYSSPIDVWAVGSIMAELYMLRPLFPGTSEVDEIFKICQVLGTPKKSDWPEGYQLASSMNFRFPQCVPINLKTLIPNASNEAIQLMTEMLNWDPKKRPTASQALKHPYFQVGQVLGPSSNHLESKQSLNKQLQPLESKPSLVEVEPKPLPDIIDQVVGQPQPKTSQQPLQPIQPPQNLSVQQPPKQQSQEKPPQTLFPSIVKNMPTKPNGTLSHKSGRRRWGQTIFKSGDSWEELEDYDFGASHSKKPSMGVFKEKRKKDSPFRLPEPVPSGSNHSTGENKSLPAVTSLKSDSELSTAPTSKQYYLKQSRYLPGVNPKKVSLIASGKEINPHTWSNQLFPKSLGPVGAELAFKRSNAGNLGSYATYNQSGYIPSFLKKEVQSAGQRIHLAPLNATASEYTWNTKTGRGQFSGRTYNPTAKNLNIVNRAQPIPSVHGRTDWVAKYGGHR
For assay [8], the target named is Ribosomal protein S6 kinase alpha-4 (Homo sapiens) (UniProt O75676). The assay can be described thus: Inhibition of C-terminal RPS6KA4 […] domain 2 (unknown origin) assessed as residual activity at 1000 nM by KINOMEscan analysis relative to control.
Chain of Ribosomal protein S6 kinase alpha-4 (Homo sapiens) (O75676 whole entry, looked up): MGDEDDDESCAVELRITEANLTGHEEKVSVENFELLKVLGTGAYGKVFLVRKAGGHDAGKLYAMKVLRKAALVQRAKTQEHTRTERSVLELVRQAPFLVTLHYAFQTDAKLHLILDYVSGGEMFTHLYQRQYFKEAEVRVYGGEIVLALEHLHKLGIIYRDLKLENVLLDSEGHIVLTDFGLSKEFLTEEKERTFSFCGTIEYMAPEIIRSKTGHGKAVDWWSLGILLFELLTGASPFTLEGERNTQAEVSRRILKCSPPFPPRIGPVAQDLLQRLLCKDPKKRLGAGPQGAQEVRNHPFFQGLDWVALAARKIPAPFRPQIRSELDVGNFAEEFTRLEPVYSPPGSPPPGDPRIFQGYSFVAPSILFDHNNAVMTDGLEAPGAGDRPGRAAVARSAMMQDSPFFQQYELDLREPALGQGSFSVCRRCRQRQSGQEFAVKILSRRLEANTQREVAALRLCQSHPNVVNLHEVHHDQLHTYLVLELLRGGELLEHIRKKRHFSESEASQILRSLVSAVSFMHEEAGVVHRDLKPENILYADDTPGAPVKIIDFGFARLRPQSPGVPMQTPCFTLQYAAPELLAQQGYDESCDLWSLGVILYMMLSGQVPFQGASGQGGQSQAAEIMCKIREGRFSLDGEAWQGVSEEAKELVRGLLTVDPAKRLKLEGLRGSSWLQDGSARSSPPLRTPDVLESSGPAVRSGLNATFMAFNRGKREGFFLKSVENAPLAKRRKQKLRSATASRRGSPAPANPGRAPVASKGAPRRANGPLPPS

With `COc1cc2nc(C)nc(N[C@H](C)c3cccc(-c4cn[nH]c4)c3)c2cc1OC`, the Activity is 95% in assay [1]; 92% in assay [2]; 93% in assay [3]; 100% in assay [4]; 100% in assay [5]; 93% in assay [6]. For the same compound, the Activity in assay [7] stood at 80%; in assay [8], 100%.

`COc1cc2ncnc(N[C@H](C)c3cccc4ccccc34)c2cc1OC`: the Activity in assay [1] amounted to 100%; in assay [2] it was 79%; in assay [3] it was 9.3%; in assay [4] it was 94%; in assay [5], 90%; in assay [6], 81%. Further, the Activity came out at 100% in assay [7] and 82% in assay [8].
